Data as given in patent US6617136B2, “Biological sample processing methods and compositions that include surfactants” (3M Innovative Properties Company, priority 2001, dated 2003).

Experiments:
AMPLITAQ DNA polymerase = target: T1, AMPLITAQ DNA polymerase (Thermus aquaticus, UniProt P19821); experiment: PCR amplification of PERV protease fragment in the presence of dye/surfactant mixture; format: biochemical; conditions: dye at 0.1 or 0.2 mg/mL, agarose gel
T1 construct: purchased Applied Biosystems, Foster City, Calif
T1 sequence (P19821 whole entry, the tested form may be a part): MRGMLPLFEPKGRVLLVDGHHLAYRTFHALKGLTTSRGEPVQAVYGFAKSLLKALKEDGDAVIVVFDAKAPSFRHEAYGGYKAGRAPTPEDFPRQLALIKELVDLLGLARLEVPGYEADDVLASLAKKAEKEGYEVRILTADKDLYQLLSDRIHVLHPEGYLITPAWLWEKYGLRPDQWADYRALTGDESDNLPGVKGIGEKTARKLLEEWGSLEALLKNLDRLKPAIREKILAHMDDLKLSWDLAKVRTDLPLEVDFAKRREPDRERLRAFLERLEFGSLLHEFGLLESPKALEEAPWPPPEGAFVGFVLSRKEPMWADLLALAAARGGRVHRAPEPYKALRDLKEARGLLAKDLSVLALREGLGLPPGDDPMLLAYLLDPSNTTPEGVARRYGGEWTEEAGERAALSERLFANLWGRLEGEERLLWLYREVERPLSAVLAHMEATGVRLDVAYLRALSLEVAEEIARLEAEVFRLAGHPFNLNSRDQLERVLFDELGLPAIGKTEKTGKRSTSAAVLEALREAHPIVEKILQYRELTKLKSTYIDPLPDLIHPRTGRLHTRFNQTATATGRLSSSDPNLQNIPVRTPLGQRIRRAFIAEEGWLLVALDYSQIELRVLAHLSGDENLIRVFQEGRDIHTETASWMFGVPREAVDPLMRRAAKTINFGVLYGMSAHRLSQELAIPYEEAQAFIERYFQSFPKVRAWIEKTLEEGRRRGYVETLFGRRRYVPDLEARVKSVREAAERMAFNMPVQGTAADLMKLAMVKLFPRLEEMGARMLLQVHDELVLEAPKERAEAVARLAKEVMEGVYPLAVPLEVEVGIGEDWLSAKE
Method: Typically, a fresh stock solution of 5 milligrams (mg) of a water-insoluble near-infrared dye (NIR dye) was dissolved in 50 microliters (μL) of dimethylsulfoxide (DMSO) and brought up in water to a final volume of 1 milliliter (mL). This was then diluted out to various concentrations of dye. The diluted dye (typically 0.2 mg/mL) was then added to a surfactant solution (typically 4 wt-%) to form a complex. The complex was added to a PCR reaction.
PCR reactions were set up for a conserved sequence (327 bp) in the protease region of the genome of porcine endogenous retrovirus using a plasmid containing the PERV protease fragment, a forward primer and a reverse primer designed using a primer express program from Applied Biosystems, and AMPLITAQ DNA polymerase cocktail (commercially available from Applied Biosystems, Foster City, Calif.) and cycled in a thermocycler (9700, Applied Biosystems). The PCR reactions were typically carried out in 25-μL volumes. The NIR dye/surfactant mixture was added to the PCR cocktail to give the desired concentration of dye and surfactant in a total volume of 25 μL. […]
In order to find out the optimum concentration of surfactant for PCR with NIR dye (785 WS and SDA 8080), the surfactant concentration in PCR reaction was varied from 0.1 wt-% to 4 wt-%. The PCR product formed was quantitated using DNA 7500 Labchip kit in Agilent 2100 Bioanalyzer (Agilent Inc, Paloalto, Calif.). […]
A variety of dyes (NIR dyes such as IR782, IR768, SDA 2141, SDA8327, IR 830 WS, fluorescent dyes like oligreen and visible dyes like dichlorophenol, indophenol, saffranin, crystal violet, and commercially available food coloring) at typical concentrations of 0.1 or 0.2 mg/mL were allowed to interact with 4 wt-% PLURONIC F127 and each mixture was added to the PCR cocktail. The reaction was set up to amplify PERV protease fragment as described in Example 2 and the products of the reaction were analyzed by agarose gel electrophoresis.

[1] = Laser stability / photobleaching of dye on laser exposure; format: physicochemical
Method: An 813-nm diode laser source at 1.2W (1.9A) (Opto Power Corp., Tucson, Ariz.) was used to heat a 10-μL volume of near-IR dye at a concentration (0.1 mg/mL for 785 WS, 0.2 mg/mL for SDA 8080) to yield a 35° C. rise in temperature. The laser was manually turned on long enough for the temperature in a 10-μL well to increase by 35° C. (1-3 seconds) and was manually turned off when that level was attained. The temperature data was obtained using a thermocouple in the well, and the transmittance data was obtained via a power meter whose signals were digitized and graphically interpreted.
In another experiment, the 10 μL well was used to see if the dye/surfactant mixture could withstand laser cycling over a period of 30 cycles. The laser power was systematically varied from 60° C. to 94° C., 30 times.
Unlike in Example 8, some dyes and dye/surfactant complexes undergo photodegradation when exposed to laser beam. […] Specifically, in the case of 785 WS/BRIJ-97, the addition of ascorbic acid (typically 5 mg/mL) helped reduce the amount of photobleaching from 100% to 20% after 30 cycles. In some circumstances, rapid/controlled photodegradation may be desired. […] This would allow DNA tags (fluorescent or vis/IR) to be monitored at the end of the PCR reaction.

Row | amount of photobleaching ([1]; 785 WS/BRIJ-97 with ascorbic acid (typically 5 mg/mL), after 30 cycles) [%] | effect of antioxidant on photobleaching ([1]; added to virtually any of the surfactants tested with 785 WS) | Compound | effect of dye alone on PCR (AMPLITAQ DNA polymerase) | effect of antioxidant on dye absorbance ([1]; added to SDA 8080)
1 | – | – | Cc1cc2nc3cc(C)c(N)cc3[n+](-c3ccccc3)c2cc1N.[Cl-] [saffranin] | inhibited PCR | –
2 | – | – | dichlorophenol | inhibited PCR | –
3 | 20 | reduced photobleaching significantly | O=C1O[C@H]([C@@H](O)CO)C(O)=C1O [ascorbic acid] | – | destroyed the absorbance in the visible and near-IR region of the dye
4 | – | – | CN(C)c1ccc(C(=C2C=CC(=[N+](C)C)C=C2)c2ccc(N(C)C)cc2)cc1 [crystal violet] | inhibited PCR | –
